Laboratory results taken from PubChem BioAssay AID1963450 (Molecular Pharmacology Branch, DTP, NCI, 2024).
pIC50: −log10 of the molar value.

Test system: 556581-035-R-J1-PDC complex spheroid growth
Assay: Anticancer human tumor 556581-035-R-J1-PDC patient-derived ovarian carcinoma cell line growth inhibition [Asc]
Conditions: for pIC50: curve of first compound; for viability, T/C: stronger effect = lower value; active = viability on the fitted dose curve at most 10% of control; inactive = the rest
Summary of the method: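 Stromal components (HUVEC and hMSC) are co-assembled with the cancer cells into multicellular spheroids. Drugs are then added singly or paired, at concentrations falling by half-log increments from a clinically achievable maximum, capped at 10 microM without known Cmax.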

[1] = second compound 0.03 µM, first compound 0.00949 µM
[2] = second compound 0.03 µM, first compound 0.03 µM
[3] = second compound 0.03 µM, first compound 0.0949 µM
[4] = second compound 0.03 µM, first compound 0.3 µM
[5] = second compound 0.0949 µM, first compound 0.00949 µM
[6] = second compound 0.0949 µM, first compound 0.03 µM
[7] = second compound 0.0949 µM, first compound 0.0949 µM
[8] = second compound 0.0949 µM, first compound 0.3 µM
[9] = second compound 0.3 µM, first compound 0.00949 µM
[10] = second compound 0.3 µM, first compound 0.03 µM
[11] = second compound 0.3 µM, first compound 0.0949 µM
[12] = second compound 0.3 µM, first compound 0.3 µM
[13] = second compound 0.949 µM, first compound 0.00949 µM
[14] = second compound 0.949 µM, first compound 0.03 µM
[15] = second compound 0.949 µM, first compound 0.0949 µM
[16] = second compound 0.949 µM, first compound 0.3 µM
[17] = second compound 3 µM, first compound 0.00949 µM
[18] = second compound 3 µM, first compound 0.03 µM
[19] = second compound 3 µM, first compound 0.0949 µM
[20] = second compound 3 µM, first compound 0.3 µM
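Also: spheroids exposed to agents for 7 days before viability read.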

Cc1nc(N2CCC3(CC2)COC(C)C3N)c(CO)nc1Sc1ccnc(N)c1Cl (stereo not given) + CCN1C(C(=O)NC23CCC(C(=O)O)(CC2)CC3)C(c2cccc(Cl)c2F)C2(C(=O)Nc3cc(Cl)ccc32)C12CCCCC2
5.61: pIC50 (second compound 0.949 µM)
5.82: pIC50 (second compound 0.0949 µM)
5.65: pIC50 (second compound 0.03 µM)
< 5.52: pIC50 (second compound 0.3 µM)
6.07: pIC50 (second compound 3 µM)
inactive: viability, T/C [1] 84.7% | viability, T/C [2] 82.1% | viability, T/C [3] 74% | viability, T/C [4] 62.4% | viability, T/C (second compound 0.03 µM, first compound 0.949 µM) 64.3% | viability, T/C (second compound 0.03 µM, first compound 3 µM) 45.1% | viability, T/C [5] 88.9% | viability, T/C [6] 91.2% | viability, T/C [7] 88.1% | viability, T/C [8] 66.5% | viability, T/C (second compound 0.0949 µM, first compound 0.949 µM) 60.6% | viability, T/C (second compound 0.0949 µM, first compound 3 µM) 39.4% | viability, T/C [9] 85.7% | viability, T/C [10] 95.7% | viability, T/C [11] 72.8% | viability, T/C [12] 73.7% | viability, T/C (second compound 0.3 µM, first compound 0.949 µM) 49.5% | viability, T/C (second compound 0.3 µM, first compound 3 µM) 58.9% | viability, T/C [13] 93.4% | viability, T/C [14] 82.3% | viability, T/C [15] 80.9% | viability, T/C [16] 68.4% | viability, T/C (second compound 0.949 µM, first compound 0.949 µM) 54.7% | viability, T/C (second compound 0.949 µM, first compound 3 µM) 49.4% | viability, T/C [17] 88.4% | viability, T/C [18] 78.7% | viability, T/C [19] 79.7% | viability, T/C [20] 60.8% | viability, T/C (second compound 3 µM, first compound 0.949 µM) 45.7% | viability, T/C (second compound 3 µM, first compound 3 µM) 50.6%

CNC(C)C(=O)NC1CN(S(=O)(=O)c2cccc(S(=O)(=O)N3CCC4CCC(C(=O)NC(c5ccccc5)c5ccccc5)N4C(=O)C(NC(=O)C(C)NC)C3)c2)CCC2CCC(C(=O)NC(c3ccccc3)c3ccccc3)N2C1=O (stereo not given) + CCN1C(C(=O)NC23CCC(C(=O)O)(CC2)CC3)C(c2cccc(Cl)c2F)C2(C(=O)Nc3cc(Cl)ccc32)C12CCCCC2
< 6.00: pIC50 (second compound 0.03 µM) | pIC50 (second compound 0.0949 µM) | pIC50 (second compound 0.3 µM) | pIC50 (second compound 0.949 µM) | pIC50 (second compound 3 µM)
inactive: viability, T/C (second compound 0.03 µM, first compound 0.00316 µM) 94.8% | viability, T/C (second compound 0.03 µM, first compound 0.01 µM) 82.8% | viability, T/C (second compound 0.03 µM, first compound 0.0316 µM) 97.9% | viability, T/C (second compound 0.03 µM, first compound 0.1 µM) 76.4% | viability, T/C (second compound 0.03 µM, first compound 0.316 µM) 61.8% | viability, T/C (second compound 0.03 µM, first compound 1 µM) 54.3% | viability, T/C (second compound 0.0949 µM, first compound 0.00316 µM) 88.3% | viability, T/C (second compound 0.0949 µM, first compound 0.01 µM) 98.8% | viability, T/C (second compound 0.0949 µM, first compound 0.0316 µM) 87% | viability, T/C (second compound 0.0949 µM, first compound 0.1 µM) 76.8% | viability, T/C (second compound 0.0949 µM, first compound 0.316 µM) 65.6% | viability, T/C (second compound 0.0949 µM, first compound 1 µM) 60.5% | viability, T/C (second compound 0.3 µM, first compound 0.00316 µM) 108% | viability, T/C (second compound 0.3 µM, first compound 0.01 µM) 97.5% | viability, T/C (second compound 0.3 µM, first compound 0.0316 µM) 106% | viability, T/C (second compound 0.3 µM, first compound 0.1 µM) 77.3% | viability, T/C (second compound 0.3 µM, first compound 0.316 µM) 73% | viability, T/C (second compound 0.3 µM, first compound 1 µM) 57.1% | viability, T/C (second compound 0.949 µM, first compound 0.00316 µM) 85.5% | viability, T/C (second compound 0.949 µM, first compound 0.01 µM) 81.2% | viability, T/C (second compound 0.949 µM, first compound 0.0316 µM) 93.9% | viability, T/C (second compound 0.949 µM, first compound 0.1 µM) 66.8% | viability, T/C (second compound 0.949 µM, first compound 0.316 µM) 65.1% | viability, T/C (second compound 0.949 µM, first compound 1 µM) 65.5% | viability, T/C (second compound 3 µM, first compound 0.00316 µM) 105% | viability, T/C (second compound 3 µM, first compound 0.01 µM) 94.6% | viability, T/C (second compound 3 µM, first compound 0.0316 µM) 78.7% | viability, T/C (second compound 3 µM, first compound 0.1 µM) 70.8% | viability, T/C (second compound 3 µM, first compound 0.316 µM) 63.3% | viability, T/C (second compound 3 µM, first compound 1 µM) 60.5%

NC(=O)C(=Cn1cnc(-c2cc(C(F)(F)F)cc(C(F)(F)F)c2)n1)c1cncnc1 + CCN1C(C(=O)NC23CCC(C(=O)O)(CC2)CC3)C(c2cccc(Cl)c2F)C2(C(=O)Nc3cc(Cl)ccc32)C12CCCCC2
< 6.52: pIC50 (second compound 0.03 µM) | pIC50 (second compound 0.0949 µM) | pIC50 (second compound 0.3 µM) | pIC50 (second compound 0.949 µM) | pIC50 (second compound 3 µM)
inactive: viability, T/C (second compound 0.03 µM, first compound 0.000949 µM) 81% | viability, T/C (second compound 0.03 µM, first compound 0.003 µM) 96.2% | viability, T/C [1] 87.3% | viability, T/C [2] 83.1% | viability, T/C [3] 86.6% | viability, T/C [4] 86.6% | viability, T/C (second compound 0.0949 µM, first compound 0.000949 µM) 97.6% | viability, T/C (second compound 0.0949 µM, first compound 0.003 µM) 99.7% | viability, T/C [5] 92.9% | viability, T/C [6] 86.7% | viability, T/C [7] 90.8% | viability, T/C [8] 101% | viability, T/C (second compound 0.3 µM, first compound 0.000949 µM) 103% | viability, T/C (second compound 0.3 µM, first compound 0.003 µM) 91.6% | viability, T/C [9] 94.9% | viability, T/C [10] 87.3% | viability, T/C [11] 86.7% | viability, T/C [12] 97.1% | viability, T/C (second compound 0.949 µM, first compound 0.000949 µM) 88.4% | viability, T/C (second compound 0.949 µM, first compound 0.003 µM) 108% | viability, T/C [13] 92.5% | viability, T/C [14] 101% | viability, T/C [15] 90% | viability, T/C [16] 91.6% | viability, T/C (second compound 3 µM, first compound 0.000949 µM) 83.5% | viability, T/C (second compound 3 µM, first compound 0.003 µM) 87.9% | viability, T/C [17] 81.7% | viability, T/C [18] 87.7% | viability, T/C [19] 78.3% | viability, T/C [20] 61.2%
